Data set [1] relates to gram positive bacteria. The data set is described as follows: In vitro anti-bacterial activity assay (broth dilution MIC), gram positive bacteria. The settings on record: 18 h. The format is cell-based, S. aureus. The method, boiled down: (§1)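 Broth dilution MIC following CLSI M7-A2: compounds serially diluted, log-phase test strains added to final ~5×10^5 CFU/ml, incubated ~18 hours at 35° C in ambient air. Plates read on microplate reader or visually; MIC is lowest concentration inhibiting growth.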
(Broth dilution looks for growth in wells or tubes with falling amounts of substance.)

Data set [2] relates to gram negative bacteria. Briefly: In vitro anti-bacterial activity assay (broth dilution MIC), gram negative bacteria. The format is cell-based, E. coli. The method in brief: as §1
Data set [3] can be described thus: Mammalian cytotoxicity assay (resazurin), COS-1 cells. The data set is classed as cell-based. The settings on record: African green monkey, read-out: Cytotox. COS-1. The method in brief: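 Resazurin read-out (0.042 mg/ml, 2 h at 37° C. then 30 min dark, room temperature; fluorescence 535/590 nm) follows 24-hour compound exposure of overnight-seeded cells, serially diluted. IC50 is the concentration giving 50% growth inhibition.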
A general note: Alamar Blue is a resazurin reagent that responds to reducing activity.

Data set [4] is described as follows: in vitro. The format is cell-based. The conditions noted are these: Chinese hamster, Cytotox. CHO-K1.
Data set [5] concerns 3T3 fibroblast cells. The data set is described as follows: In vitro phototoxicity assay (neutral red; UV light-treated vs dark control plates). The format is cell-based. The conditions noted are these: for Photo Toxicity UV Tox50: UV light 50 minutes; for Photo Toxicity Dark Tox50: dark control plate. The method, boiled down: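 Neutral red viability readout (A535 after EtOH/acetic acid extraction) compares paired plates: one exposed 50 min to UV at 1.6–1.8 mW/cm^2, one held in darkness, both dosed with compound in HBSS and recovered overnight. 3T3 fibroblast cells used; phototoxicity taken as the difference.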

Where [6] appears, read: Staphylococcus aureus, S. aureus MRSA5, read-out: Median MIC's G+ S. aureus MRSA5.
Setting [7] is: Staphylococcus aureus, S. aureus RN450, read-out: Median MIC's G+ S. aureus RN450.
The mark [8] stands for this setting: Streptococcus pneumoniae, S. pneumoniae 157E-Strep, read-out: Median MIC's G+ S. pneumoniae 157E-Strep.
Where [9] appears, read: Escherichia coli, 18 h, E. coli D1 209, read-out: Median MIC's G− E. coli D1 209.
Setting [10] is: Escherichia coli, 18 h, E. coli MG 1655, read-out: Median MIC's G− E. coli MG 1655.
[11] abbreviates: Escherichia coli, ATCC25922, 18 h, E. coli ATCC 25922, read-out: Median MIC's G− E. coli ATCC 25922.
The mark [12] stands for this setting: Pseudomonas aeruginosa, 18 h, P. aeruginosa K201 PAO6609, read-out: Median MIC's G− P. aeruginosa K201 PAO6609.

≈ marks a conversion by molar mass, not a printed value. Where two headings read alike, the source gives them in different places.

The MIC is the smallest concentration in the dilution series that meets the test's criterion for growth inhibition. With `C=CCNCC(=O)c1ccc(O)c2c1C[C@H]1C[C@H]3[C@H](N(C)C)C(O)=C(C(N)=O)C(=O)[C@@]3(O)C(O)=C1C2=O` [BV], the MIC amounted to 32 µg/mL (≈ 62.6 µM) in data set [1] (setting [6]); 4 µg/mL (≈ 7.82 µM) in data set [1] (setting [7]); 1 µg/mL (≈ 1.95 µM) in data set [1] (setting [8]); 64 µg/mL (≈ 125 µM) in data set [2] (setting [9]); 16 µg/mL (≈ 31.3 µM) in data set [2] (setting [10]); 32 µg/mL (≈ 62.6 µM) in data set [2] (setting [11]). Further, in data set [2] (setting [12]), the MIC was found to be 64 µg/mL (≈ 125 µM). Further, the IC50 at 24 h in data set [3] is greater than 122 µM; in data set [4], 27.6 µM. The “Photo Toxicity UV Tox50” value in data set [5] was greater than 121.69 µM. Also, in data set [5], the “Photo Toxicity Dark Tox50” value is greater than 121.69 µM.

Take `COCC(=O)c1ccc(O)c2c1C[C@H]1C[C@H]3[C@H](N(C)C)C(O)=C(C(N)=O)C(=O)[C@@]3(O)C(O)=C1C2=O` [BW]: the MIC in data set [1] (setting [6]) came to 1 µg/mL (≈ 2.06 µM); in data set [1] (setting [7]), 0.06 µg/mL (≈ 0.123 µM); in data set [1] (setting [8]) it was 0.06 µg/mL (≈ 0.123 µM); in data set [2] (setting [9]), 64 µg/mL (≈ 132 µM); in data set [2] (setting [10]) it was 0.5 µg/mL (≈ 1.03 µM); in data set [2] (setting [11]) it was 0.5 µg/mL (≈ 1.03 µM). Besides, the MIC in data set [2] (setting [12]) was determined as 32 µg/mL (≈ 65.8 µM). The IC50 at 24 h in data set [3] and in data set [4] was greater than 53.4 µM each time. In addition, the “Photo Toxicity UV Tox50” value in data set [5] is greater than 172.1 µM. For the same compound, in data set [5], the “Photo Toxicity Dark Tox50” value was greater than 172.1 µM.

Take `CC(C)N1CCN(CC(=O)c2ccc(O)c3c2C[C@H]2C[C@H]4[C@H](N(C)C)C(O)=C(C(N)=O)C(=O)[C@@]4(O)C(O)=C2C3=O)CC1` [BX]: the MIC in data set [1] (setting [6]) came to 4 µg/mL (≈ 6.87 µM); in data set [1] (setting [7]), 1 µg/mL (≈ 1.72 µM); in data set [1] (setting [8]), 0.5 µg/mL (≈ 0.858 µM); in data set [2] (setting [9]), 64 µg/mL (≈ 110 µM); in data set [2] (setting [10]) it was 8 µg/mL (≈ 13.7 µM); in data set [2] (setting [11]), 8 µg/mL (≈ 13.7 µM). Besides, the MIC in data set [2] (setting [12]) amounted to 64 µg/mL (≈ 110 µM). Besides, the IC50 at 24 h in data set [3] and in data set [4] was greater than 130 µM throughout. Further, in data set [5], the “Photo Toxicity UV Tox50” value was greater than 130.05 µM. In data set [5], the “Photo Toxicity Dark Tox50” value was greater than 130.05 µM.

Take `CN(C)[C@@H]1C(O)=C(C(N)=O)C(=O)[C@@]2(O)C(O)=C3C(=O)c4c(O)ccc(C(=O)CNCc5ccccn5)c4C[C@H]3C[C@@H]12` [BY]: the MIC in data set [1] (setting [6]) was 32 µg/mL (≈ 56.9 µM); in data set [1] (setting [7]), 2 µg/mL (≈ 3.56 µM); in data set [1] (setting [8]), 4 µg/mL (≈ 7.11 µM); in data set [2] (setting [9]), 64 µg/mL (≈ 114 µM); in data set [2] (setting [10]), 64 µg/mL (≈ 114 µM); in data set [2] (setting [11]), 64 µg/mL (≈ 114 µM). Also, the MIC in data set [2] (setting [12]) was 64 µg/mL (≈ 114 µM). The IC50 at 24 h in data set [3] and in data set [4] was greater than 13.4 µM throughout. In data set [5], the “Photo Toxicity UV Tox50” value is greater than 133.75 µM. The “Photo Toxicity Dark Tox50” value in data set [5] is greater than 133.75 µM.

For the compound `CN(C)[C@@H]1C(O)=C(C(N)=O)C(=O)[C@@]2(O)C(O)=C3C(=O)c4c(O)ccc(C(=O)CNCC(N)=O)c4C[C@H]3C[C@@H]12` [BZ], the MIC in data set [1] (setting [6]) worked out at 64 µg/mL (≈ 121 µM); in data set [1] (setting [7]), 4 µg/mL (≈ 7.57 µM); in data set [1] (setting [8]) it was 4 µg/mL (≈ 7.57 µM); in data set [2] (setting [9]), 64 µg/mL (≈ 121 µM); in data set [2] (setting [10]) it was 64 µg/mL (≈ 121 µM); in data set [2] (setting [11]), 64 µg/mL (≈ 121 µM). In addition, the MIC in data set [2] (setting [12]) came to 64 µg/mL (≈ 121 µM). In addition, the IC50 at 24 h in data set [3] and in data set [4] was greater than 119 µM in each case. In addition, the “Photo Toxicity UV Tox50” value in data set [5] was greater than 118.96 µM. The “Photo Toxicity Dark Tox50” value in data set [5] is greater than 118.96 µM.

For `COC(C)CNCC(=O)c1ccc(O)c2c1C[C@H]1C[C@H]3[C@H](N(C)C)C(O)=C(C(N)=O)C(=O)[C@@]3(O)C(O)=C1C2=O` (some centres unmarked) [CA], the MIC is 32 µg/mL (≈ 58.9 µM) in data set [1] (setting [6]); 4 µg/mL (≈ 7.36 µM) in data set [1] (setting [7]); 2 µg/mL (≈ 3.68 µM) in data set [1] (setting [8]); 64 µg/mL (≈ 118 µM) in data set [2] (setting [9]); 32 µg/mL (≈ 58.9 µM) in data set [2] (setting [10]); 32 µg/mL (≈ 58.9 µM) in data set [2] (setting [11]). In data set [2] (setting [12]), the MIC was found to be 64 µg/mL (≈ 118 µM). Further, the IC50 at 24 h in data set [3] and in data set [4] was greater than 146 µM in each case. The “Photo Toxicity UV Tox50” value in data set [5] was greater than 145.98 µM. For the same compound, the “Photo Toxicity Dark Tox50” value in data set [5] was greater than 145.98 µM.

As for `CN(C)[C@@H]1C(O)=C(C(N)=O)C(=O)[C@@]2(O)C(O)=C3C(=O)c4c(O)ccc(C(=O)CNc5cccnc5)c4C[C@H]3C[C@@H]12` [CB], the MIC is 64 µg/mL (≈ 117 µM) in data set [1] (setting [6]); 16 µg/mL (≈ 29.2 µM) in data set [1] (setting [7]); 32 µg/mL (≈ 58.3 µM) in data set [1] (setting [8]); 64 µg/mL (≈ 117 µM) in data set [2] (setting [9]); 64 µg/mL (≈ 117 µM) in data set [2] (setting [10]); 64 µg/mL (≈ 117 µM) in data set [2] (setting [11]). Besides, the MIC in data set [2] (setting [12]) amounted to 64 µg/mL (≈ 117 µM). Moreover, the IC50 at 24 h is greater than 153 µM in data set [3] and 110 µM in data set [4]. Besides, the “Photo Toxicity UV Tox50” value in data set [5] was greater than 152.86 µM. Besides, the “Photo Toxicity Dark Tox50” value in data set [5] was greater than 152.86 µM.

These data come from US20100022483A1, “Substituted Tetracycline Compounds” (Paratek Pharmaceuticals, Inc., priority 2008, published 2010).
